Molecular target: PtmO8 (Streptomyces platensis, UniProt A0A0A0UVL0)
Experiment: steady-state enzyme kinetics
Assay type: biochemical

SMILES: NC(=O)c1ccc[n+]([C@@H]2O[C@H](COP(=O)([O-])OP(=O)(O)OC[C@H]3O[C@@H](n4cnc5c(N)ncnc54)[C@H](O)[C@@H]3O)[C@@H](O)[C@H]2O)c1 [NAD^+]
- Km: 34.2 ± 3.6 µM

Source: PMC6545883 (Journal of the American Chemical Society, 2019)
